# Measured values taken from patent US20190202836A1, “SELECTIVE DUAL INHIBITORS OF PI3 DELTA AND GAMMA PROTEIN KINASES” (Rhizen Pharmaceuticals SA, priority 2014, published 2019).
# Read-outs that look alike come from different tables or passages of the source.
# Experiments:
# [1] = Metabolic stability in mouse liver microsomes; format: in vitro ADME; settings: 1 μM test item, 60 minutes, 37° C., NADPH
# Method: (§1) Metabolic stability studies were conducted on Compounds A, A1, and A2 as well as Example 128 of WO 2012/151525 using mouse, rat, dog, monkey, and human liver microsomes. The protocol for the studies with mouse, rat, and human liver microsomes (all from BD Gentest, USA) is provided below. 0.4 mg protein was preincubated with 2 mM NADPH (cofactor) in phosphate buffer (pH-7.4) for 15 minutes at 37° C. and then added with 1 μM test item and incubated further for 60 minutes in triplicate. The reaction mixture was terminated with methanol containing an internal standard and centrifuged further to analyze the test item remaining in the supernatant by LC-MS/MS. The percent parent compound remaining was calculated in comparison with similar samples terminated at 0 minutes.
# [2] = Metabolic stability in rat liver microsomes; format: in vitro ADME; settings: 1 μM test item, 60 minutes, 37° C., NADPH
# Method: as §1
# [3] = Metabolic stability in dog liver microsomes; format: in vitro ADME
# [4] = Metabolic stability in monkey liver microsomes; format: in vitro ADME
# Method: as §1
# [5] = Metabolic stability in human liver microsomes; format: in vitro ADME; settings: 1 μM test item, 60 minutes, 37° C., NADPH
# Method: as §1
# [6] = Oral pharmacokinetics in rats; format: in vivo; settings: Rat, 10 mg/kg
# Method: The oral bioavailability of Compound A1 (free base) was evaluated in rats and mice. The protocol for the pharmacokinetics studies in rat is provided below.
# All animals were fasted overnight (12 hours) before dosing and continued till 4.0 hours after administration of test item. Test item formulations were prepared in 1% Tween 80 and 99% media (0.5% Methyl cellulose, 4000cPs, pH 2.2). The blood samples (150 μL from each animal) were collected from the orbital sinus, and placed into a micro centrifuge tube containing disodium EDTA as an anticoagulant. Blood samples were centrifuged immediately with a speed of 1000 g for 10 min at 4° C. and separated plasma samples were frozen at below −80° C. and stored until analysis. The concentrations of test item in all formulations were analyzed by HPLC. The plasma concentrations of test item in all samples were analyzed by LC-MS/MS. Pharmacokinetic parameters (Cmax, AUC0-t, Tmax, and t^1/2) were estimated by using WinNonlin software. Results are provided in Table 3 for Compound A, A1, and Example 128 of WO 2012/151525 in rats and Compound A1 in mice.
# PI3Kδ = PI3Kδ (Homo sapiens, UniProt O00329); assay: Assay 1: Fluorescent (HTRF) determination of PI3 kinase enzyme activity, PI3Kδ; format: biochemical
# PI3Kδ, sequence (O00329 whole entry, canonical isoform): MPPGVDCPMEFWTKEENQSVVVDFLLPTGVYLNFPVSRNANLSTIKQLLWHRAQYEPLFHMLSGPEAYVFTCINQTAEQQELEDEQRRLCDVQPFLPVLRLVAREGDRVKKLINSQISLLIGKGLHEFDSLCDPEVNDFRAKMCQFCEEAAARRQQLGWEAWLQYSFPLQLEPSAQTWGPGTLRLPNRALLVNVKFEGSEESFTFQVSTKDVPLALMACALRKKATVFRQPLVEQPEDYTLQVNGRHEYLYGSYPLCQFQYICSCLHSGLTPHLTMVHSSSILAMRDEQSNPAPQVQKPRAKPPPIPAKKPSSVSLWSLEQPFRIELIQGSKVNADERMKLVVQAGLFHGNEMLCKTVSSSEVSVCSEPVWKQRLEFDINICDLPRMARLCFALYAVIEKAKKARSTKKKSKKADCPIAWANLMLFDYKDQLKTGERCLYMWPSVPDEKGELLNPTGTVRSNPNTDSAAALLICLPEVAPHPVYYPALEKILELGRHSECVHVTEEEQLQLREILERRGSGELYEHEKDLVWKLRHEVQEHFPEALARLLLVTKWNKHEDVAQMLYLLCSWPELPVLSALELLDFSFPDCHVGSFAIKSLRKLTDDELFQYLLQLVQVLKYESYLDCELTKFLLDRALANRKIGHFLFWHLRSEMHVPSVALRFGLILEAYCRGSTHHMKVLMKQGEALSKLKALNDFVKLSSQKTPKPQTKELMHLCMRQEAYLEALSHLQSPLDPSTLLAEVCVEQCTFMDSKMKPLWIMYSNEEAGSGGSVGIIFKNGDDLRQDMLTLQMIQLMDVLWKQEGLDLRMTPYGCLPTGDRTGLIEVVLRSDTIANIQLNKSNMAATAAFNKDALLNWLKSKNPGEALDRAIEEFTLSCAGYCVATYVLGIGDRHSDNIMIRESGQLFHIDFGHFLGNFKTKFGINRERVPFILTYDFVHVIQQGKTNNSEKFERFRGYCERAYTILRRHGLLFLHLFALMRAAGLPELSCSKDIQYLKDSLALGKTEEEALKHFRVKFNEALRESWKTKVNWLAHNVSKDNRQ
# PI3Kδ, sequence (P27986 whole entry partner, canonical isoform): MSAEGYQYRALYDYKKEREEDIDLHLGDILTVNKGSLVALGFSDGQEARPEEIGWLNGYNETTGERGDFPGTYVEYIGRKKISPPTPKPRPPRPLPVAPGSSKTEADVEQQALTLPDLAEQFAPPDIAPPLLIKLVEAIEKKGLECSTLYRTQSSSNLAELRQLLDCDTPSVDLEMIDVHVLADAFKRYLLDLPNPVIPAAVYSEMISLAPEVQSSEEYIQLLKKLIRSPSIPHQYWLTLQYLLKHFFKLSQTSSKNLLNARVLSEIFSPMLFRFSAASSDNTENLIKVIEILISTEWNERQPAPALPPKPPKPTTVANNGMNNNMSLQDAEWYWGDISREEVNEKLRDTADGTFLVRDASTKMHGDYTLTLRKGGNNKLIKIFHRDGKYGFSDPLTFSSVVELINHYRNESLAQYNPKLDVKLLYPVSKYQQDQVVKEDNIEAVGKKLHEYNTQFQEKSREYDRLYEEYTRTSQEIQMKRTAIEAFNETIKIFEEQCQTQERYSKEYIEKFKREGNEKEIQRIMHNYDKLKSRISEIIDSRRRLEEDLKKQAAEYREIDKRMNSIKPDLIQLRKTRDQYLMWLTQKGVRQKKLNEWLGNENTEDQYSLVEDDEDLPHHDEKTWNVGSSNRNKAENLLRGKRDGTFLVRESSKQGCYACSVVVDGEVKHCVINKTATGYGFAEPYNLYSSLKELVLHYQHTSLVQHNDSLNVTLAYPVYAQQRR
# Text: (§2) Phosphoinositide 3 kinases (PI3K) belong to a class of lipid kinases that play a critical role in the regulation of several key cellular processes. The PI3K are capable of phosphorylating the 3-hydroxy position of phosphoinositols thereby generating second messengers involved in downstream signaling events. The homogenous time resolved fluorescence (HTRF) assay allows detection of 3,4,5-triphosphate (PIPS) formed as a result of phosphorylation of phosphotidylinositol 4,5-biphosphate (PIP2) by PI3K isoforms such as α, β, γ or δ.
# (§3) PI3K isoform activity for α, β, γ or δ was determined using a PI3K human HTRF™ Assay Kit (Millipore, Billerica, Mass.) with modifications. All incubations were carried out at room temperature. 0.5 μl of 40× inhibitor (in 100% DMSO) or 100% DMSO were added to each well of a 384-well white plate (Greiner Bio-One, Monroe, N.C.) containing 14.5 μl 1× reaction buffer/PIP2 (10 mM MgCl2, 5 mM DTT, 1.38 μM PIP2) mix with or without enzyme, followed by 5 μl/well of 400 μM ATP and incubated for an additional 30 minutes. The reaction was terminated by adding 5 μl/well stop solution (Millipore, Billerica, Mass.). 5 μl of detection mix (Millipore, Billerica, Mass.) was then added to each well and incubated for 6-18 hours in the dark. HRTF ratio was measured on a microplate reader (BMG Labtech., Germany) at an excitation wavelength of 337 nm and emission wavelengths of 665 and 615 nm with an integration time of 400 msec counting delay of 50 msec.
# PI3Kγ = PI3Kγ (Homo sapiens, UniProt P48736); assay: Assay 1: Fluorescent (HTRF) determination of PI3 kinase enzyme activity, PI3Kγ; format: biochemical
# PI3Kγ, sequence (P48736 whole entry): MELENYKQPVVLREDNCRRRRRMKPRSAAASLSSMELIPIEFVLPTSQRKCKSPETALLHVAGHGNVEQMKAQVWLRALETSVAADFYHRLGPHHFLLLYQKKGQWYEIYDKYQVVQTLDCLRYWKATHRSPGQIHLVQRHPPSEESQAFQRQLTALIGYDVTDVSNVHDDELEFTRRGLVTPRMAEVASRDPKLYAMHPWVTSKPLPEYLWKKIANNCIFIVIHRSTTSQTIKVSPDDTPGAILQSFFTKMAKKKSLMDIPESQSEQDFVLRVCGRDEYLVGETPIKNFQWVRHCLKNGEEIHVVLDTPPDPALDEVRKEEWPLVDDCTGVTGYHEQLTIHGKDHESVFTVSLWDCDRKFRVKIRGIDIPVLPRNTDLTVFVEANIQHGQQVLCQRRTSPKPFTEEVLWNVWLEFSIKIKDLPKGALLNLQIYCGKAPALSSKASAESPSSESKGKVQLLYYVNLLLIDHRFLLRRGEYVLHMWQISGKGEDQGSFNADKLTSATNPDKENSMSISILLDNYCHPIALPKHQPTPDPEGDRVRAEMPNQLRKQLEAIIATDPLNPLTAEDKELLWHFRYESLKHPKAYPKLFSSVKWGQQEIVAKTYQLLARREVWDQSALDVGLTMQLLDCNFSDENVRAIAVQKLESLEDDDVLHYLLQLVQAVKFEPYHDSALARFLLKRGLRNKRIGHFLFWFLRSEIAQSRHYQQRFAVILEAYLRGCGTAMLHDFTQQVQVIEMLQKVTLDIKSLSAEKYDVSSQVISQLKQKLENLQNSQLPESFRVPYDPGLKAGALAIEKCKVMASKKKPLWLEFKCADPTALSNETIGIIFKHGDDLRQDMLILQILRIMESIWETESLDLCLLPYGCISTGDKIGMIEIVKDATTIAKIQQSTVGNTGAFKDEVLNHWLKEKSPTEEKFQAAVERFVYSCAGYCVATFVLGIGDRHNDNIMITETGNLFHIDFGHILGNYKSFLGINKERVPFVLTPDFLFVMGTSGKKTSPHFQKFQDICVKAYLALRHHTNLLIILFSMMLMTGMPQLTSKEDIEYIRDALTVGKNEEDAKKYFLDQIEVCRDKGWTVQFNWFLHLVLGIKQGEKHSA
# Text: as §2, §3
# [7] = reported at 55th ASH Annual Meeting, 2013; cited from earlier work
"Metabolic stability in liver microsomes (percent parent compound remaining), Mouse [1] [%]","Metabolic stability in liver microsomes (percent parent compound remaining), Rat [2] [%]","Metabolic stability in liver microsomes (percent parent compound remaining), Dog [3] [%]","Metabolic stability in liver microsomes (percent parent compound remaining), Monkey [4] [%]","Metabolic stability in liver microsomes (percent parent compound remaining), Human [5] [%]",fold increase in AUC0-t as compared to Example 128 of WO 2012/151525 [6] [fold],fold increase in Cmax as compared to Example 128 of WO 2012/151525 [6] [fold],fold increase in t1/2 as compared to Example 128 of WO 2012/151525 [6] [fold],AUC(0-t) ([6]; plasma) [µM·h],Cmax ([6]; plasma) [nM],Tmax ([6]; plasma) [h],half-life ([6]; plasma) [h],IC50 (PI3Kδ) [nM],IC50 (PI3Kγ; read-out: IC50 (nM) PI3Kγ) [nM],IC50 (PI3Kγ; read-out: IC50 Pi3Kγ (cell prints μM)) [nM],Structure (SMILES),maximum tolerated dose (MTD) [7] [mg BID]
96,91,64.3,42.3,69.7,~4,~1.5,~2.8,7.95,1020,2.67,4.52,103,82.9,–,"COc1ccc(-c2nn(C(C)c3oc4cccc(F)c4c(=O)c3-c3cccc(F)c3)c3ncnc(N)c23)cc1NS(C)(=O)=O (racemic) [Compound A, (RS)—N-(5-(4-amino-1-(1-(5-fluoro-3-(3-fluorophenyl)-4-oxo-4H-chromen-2-yl)ethyl)-1H-pyrazolo[3,4-d]pyrimidin-3-yl)-2-methoxyphenyl)methanesulfonamide]",–
68.9,79.5,52.3,1.9,60.2,–,–,–,–,–,–,–,92.9,> 10000,> 10000,"COc1ccc(-c2nn([C@H](C)c3oc4cccc(F)c4c(=O)c3-c3cccc(F)c3)c3ncnc(N)c23)cc1NS(C)(=O)=O [Compound A2, (R)—N-(5-(4-amino-1-(1-(5-fluoro-3-(3-fluorophenyl)-4-oxo-4H-chromen-2-yl)ethyl)-1H-pyrazolo[3,4-d]pyrimidin-3-yl)-2-methoxyphenyl)methanesulfonamide]",–
–,–,–,–,–,–,–,–,–,–,–,–,–,–,–,C[C@H](Nc1ncnc2[nH]cnc12)c1cc2cccc(Cl)c2c(=O)n1-c1ccccc1 [IPI-45],75
